According to patent US9732320B2, “Selective differentiation, identification, and modulation of human TH17 cells” (THE BRIGHAM AND WOMEN'S HOSPITAL, INC., priority 2008, dated 2017):

Assays:
TH17 cells = experiment: Chemotaxis chamber assay, TH17 cells; type: cell-based
Procedure: (§1) TH17 or TH1 cells alone or together with different concentrations of LTB4 inhibitor, U75-302, were added to the upper wells of chemotaxis chambers with 10^−8M of LTB4 in the lower wells. Cells were kept at 37° C. in 10% CO2 for 2 hr. Cells from the lower chamber were then stained with anti-CD4 antibody and stimulated for 4 hr with PMA/ionomycin in the presence of Golgi Stop. Cells were permeabilized and stained intracellularly for IL-17 or IFN-γ. The chemotactic index was calculated by dividing the number of CD4^+ IL-17^+ (for TH17 cells) or CD4^+ IFN-γ+ (for TH1 cells) migrated cells in LTB4-containing wells by the number of CD4^+ IL-17^+ (for TH17 cells) or CD4^+ IFN-γ+ (for Th1 cells) cells that migrated spontaneously to media alone.

TH1 cells = experiment: Chemotaxis chamber assay, TH1 cells; type: cell-based; settings: 10^−8M of LTB4 in the lower wells, 2 hr
Procedure: as §1

BLT1 = BLT1 (Homo sapiens, UniProt Q15722); settings: Richards et al. 1989; cited from earlier work
naïve human CD4+ T cells = experiment: Quantitative RT-PCR of stimulated naïve CD4+ T cells from peripheral blood; type: cell-based; settings: for IL-23 receptor up-regulation: stimulated naïve CD4+ T cells; for IL-22 mRNA: absence of exogenous IL-23
Procedure: The mean fold-induction (relative to T cells stimulated in the absence of exogenous cytokines) and standard error among three independent experiments using T cells from three unrelated subjects are represented.
(§2) Naïve or central memory CD4^+ T cells were stimulated with plate-bound anti-CD3 and soluble CD28 monoclonal antibodies (1 μg/ml, each) in serum-free X-VIVO15 medium (Biowhittaker Inc., Walkersville, Md.) and cytokines (IL-6, 25 ng/ml; TGF-β, 5 ng/ml; IL-1β, 12.5 ng/ml; IL-21, 25 ng/ml; IL-23, 25 ng/ml) for a period of seven days, at which point supernatants were collected and tested by ELISA for IFN-β (BD Biosciences) or IL-17A (eBioscience, San Diego, Calif.) using paired antibodies. Intracytoplasmic staining was performed using standard methodologies and anti-IL-17-APC (R&D Systems, Minneapolis, Minn.) and anti-IFN-β-PE (BD Biosciences) antibodies.
All primers and probes were obtained from Applied Biosystems (Foster City, Calif.), and used according to standard methodologies.

[1] = test system: human central memory CD4+ T cells; experiment: Differentiation assay: central memory CD4+ T cells (TCM) stimulated with anti-CD3/anti-CD28 plus cytokines for seven days; ELISA; type: cell-based
Source text: (§3) Error bars represent the standard deviation among three independent experiments using T cells from three unrelated subjects.
(§4) PBMCs were obtained from the peripheral blood of healthy subjects or from cord blood (AllCells) in compliance with institutional IRB protocols. CD4+ T cells were subsequently isolated by negative selection using magnetic beads (Miltenyi Biotech Inc., Auburn, Calif.). Naïve (CD25^− CD62L^+ CD45RA^hi) and central memory (CD25^− CD62L^+ CD45RA^−) CD4^+ T cells were obtained by staining with the following antibodies: CD62L-FITC, CD4-PerCP, CD45RA-PE-Cy7, CD25-APC-Cy7 (BD Pharmingen, San Diego, Calif.) and were sorted on a FACS Aria (BD Biosciences, Palo Alto, Calif.).
as §2

human naïve CD4+ T cells = experiment: Differentiation assay: naïve CD4+ T cells stimulated with anti-CD3/anti-CD28 plus cytokines for seven days; ELISA and intracytoplasmic staining; type: cell-based; settings: for IFN-β secretion from naïve T cells / IL-17A secretion from naïve CD4+ T cells: ELISA; for IL-17A secretion from naïve CD4+ T cells: serum-free medium
Source text: as §3, §4, §2

naïve cord blood T cells = experiment: Quantitative RT-PCR of stimulated naïve CD4+ T cells from cord blood; type: cell-based, human; settings: seven days
Procedure: Sorted T cells were stimulated for seven days in the presence of the indicated cytokines, at which point RNA was collected and levels of IL-17A and RORC2 were measured by quantitative RT-PCR. Mean expression and standard error are reported based on three independent experiments using cord blood from three distinct donors.
as §4
as §2, with “Intracytoplasmic staining was performed using standard methodologies and anti-IL-17-APC (R&D Systems, Minneapolis, Minn.) and anti-IFN-β-PE (BD Biosciences) antibodies.” left out

Chain of BLT1 (Q15722 whole entry, species assumed): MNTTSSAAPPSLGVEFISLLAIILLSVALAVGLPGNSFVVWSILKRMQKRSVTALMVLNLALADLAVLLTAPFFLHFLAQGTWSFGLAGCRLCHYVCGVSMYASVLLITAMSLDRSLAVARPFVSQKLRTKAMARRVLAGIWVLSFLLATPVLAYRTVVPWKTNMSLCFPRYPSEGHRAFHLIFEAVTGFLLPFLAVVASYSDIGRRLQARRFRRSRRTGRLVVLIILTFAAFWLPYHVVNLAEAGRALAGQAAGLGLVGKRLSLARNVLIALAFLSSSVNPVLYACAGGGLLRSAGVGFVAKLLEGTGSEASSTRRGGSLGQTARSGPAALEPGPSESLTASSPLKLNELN

CCCCC/C=C\C[C@@H](O)/C=C/C=C/C=C\[C@@H](O)CCCC(=O)O [LTB4, Leukotriene B4]
Migration (chemotaxis) of TH17 cells (TH17 cells; 10^−8M of LTB4 in the lower wells, 2 hr): induced the selective migration | Migration (chemotaxis) of TH1 cells (TH1 cells): not

CCCCC/C=C\C[C@@H](O)/C=C/c1cccc(C[C@@H](O)CCCCO)n1 [U-75302, 6-(6-(3R-hydroxy-1E,5Z-undecadien-1-yl)-2-pyridinyl)-1,5S-hexandiol]
Binding to BLT1 (BLT1): specifically binds BLT1 | Block of LTB4-induced migration of Th17 cells (TH17 cells; different doses of antagonist in the upper wells): blocked in a dose dependant manner

IL-1β: cytokine, 12.5 ng/ml
IL-21 mRNA (naïve human CD4+ T cells; naïve CD4+ T cells): induced even greater amounts of IL-21 mRNA | IL-23 receptor up-regulation (naïve human CD4+ T cells): induced IL-23 receptor up-regulation | IL-17A secretion from TCM [1]: induced the greatest amount of IL-17A secretion | IFN-β secretion from naïve T cells (human naïve CD4+ T cells): induced significant amounts of IFN-β secretion | IL-17A secretion from naïve CD4+ T cells (human naïve CD4+ T cells): failed, however, to induce IL-17A secretion

IL-6: cytokine, 25 ng/ml
Inhibition of the FoxP3 induction by TGF-β (naïve human CD4+ T cells; cytokine added with TGF-β): inhibited | IL-23 receptor up-regulation (naïve human CD4+ T cells): induced IL-23 receptor up-regulation | IL-17A secretion from TCM [1]: little effect | IFN-β secretion from naïve T cells (human naïve CD4+ T cells): induced significant amounts of IFN-β secretion

IL-21: cytokine, 25 ng/ml
IL-21 mRNA (naïve human CD4+ T cells; naïve CD4+ T cells): significantly up-regulated IL-21 | IL-22 mRNA (naïve human CD4+ T cells; naïve CD4+ T cells): induced IL-22 mRNA levels | IL-23 receptor up-regulation (naïve human CD4+ T cells): induced IL-23 receptor up-regulation | RORC2 mRNA (naïve cord blood T cells): modestly induced RORC2 | TH17 differentiation from naïve CD4+ T cells (human naïve CD4+ T cells): does not induce human TH17 differentiation | IFN-β secretion from naïve T cells (human naïve CD4+ T cells): induced significant amounts of IFN-β secretion | IL-17A secretion from naïve CD4+ T cells (human naïve CD4+ T cells): unable to synergize with endogenous levels of TGF-β to promote IL-17 secretion

TGF-β: cytokine, 5 ng/ml; doses from 1 ng/ml to 100 ng/ml examined
IL-21 mRNA (naïve human CD4+ T cells; naïve CD4+ T cells): suppressed the expression of IL-21 and IL-22 mRNA induced by IL-21 | IL-22 mRNA (naïve human CD4+ T cells; naïve CD4+ T cells): suppressed the expression of IL-21 and IL-22 mRNA induced by IL-21 | FoxP3 expression (naïve human CD4+ T cells; naïve CD4+ T cells, seven days): induced | T-bet mRNA expression (naïve human CD4+ T cells; naïve CD4+ T cells, seven days): suppresses the induction of T-bet by IL-21 | IL-23 receptor up-regulation (naïve human CD4+ T cells): not | TH17 differentiation from naïve CD4+ T cells (human naïve CD4+ T cells): all differentiation/proliferation was suppressed

B1: IL-23: cytokine, 25 ng/ml (protein, UniProt Q9NPF7 20-189; P29460 23-328, looked up)
Interleukin-23 subunit alpha: RAVPGGSSPAWTQCQQLSQKLCTLAWSAHPLVGHMDLREEGDEETTNDVPHIQCGDGCDPQGLRDNSQFCLQRIHQGLIFYEKLLGSDIFTGEPSLLPDSPVGQLHASLLGLSQLLQPEGHHWETQQIPSLSPSQPWQRLLLRFKILRSLQAFVAVAARVFAHGAATLSP
Interleukin-12 subunit beta: IWELKKDVYVVELDWYPDAPGEMVVLTCDTPEEDGITWTLDQSSEVLGSGKTLTIQVKEFGDAGQYTCHKGGEVLSHSLLLLHKKEDGIWSTDILKDQKEPKNKTFLRCEAKNYSGRFTCWWLTTISTDLTFSVKSSRGSSDPQGVTCGAATLSAERVRGDNKEYEYSVECQEDSACPAAEESLPIEVMVDAVHKLKYENYTSSFFIRDIIKPDPPKNLQLKPLKNSRQVEVSWEYPDTWSTPHSYFSLTFCVQVQGKSKREKKDRVFTDKTSATVICRKNASISVRAQDRYYSSSWSEWASVPCS
IL-17A secretion from TCM [1]: modestly enhance IL-17A secretion
